# Like-named read-outs stand apart in the source and are kept apart here.
# Assays:
# [1] = test system: HCV genotype 1a (H77 strain) replicon in HUH-7 cells; test: HCV replicon luciferase reporter assay, genotype 1a; format: cell-based; conditions: Hepatitis C virus, 72 h, genotype 1a replicon, 3 days incubation
# Summary of the method: (§1)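 Twenty-point, threefold compound titrations (0.5% DMSO) were incubated 3 days at 37 °C with 3.0×10^3 HUH-7 cells/well in 4% FCS. The cells stably carried luciferase replicons: genotype 1b Con1 (S1179I) or 1a H77 (NS3 P1496L, NS5A S2204I). Renilla signal was read after 2 h with 7.5 μM EnduRen, and EC50 was taken from a four-parameter logistic fit. Cytotoxicity (CC50) was measured by Cell Titer-Blue, 8 h.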
# [2] = test system: HCV genotype 1b (Con1) replicon in HUH-7 cells; test: HCV replicon luciferase reporter assay, genotype 1b; format: cell-based; conditions: Hepatitis C virus, 72 h, genotype 1b replicon, 3 days incubation
# Summary of the method: as §1
SMILES,EC50 ([1]; read-out: LE_1a (EC50)) [nM],"EC50 ([1]; read-out: LE_1a (EC50, range)) [nM]",EC50 ([2]; read-out: LE_1b (EC50)) [nM],"EC50 ([2]; read-out: LE_1b (EC50, range)) [nM]"
"COC[C@@H]1C[C@@H](C)CC/C=C\[C@@H]2C[C@@]2(C(=O)NS(=O)(=O)C2(CF)CC2)NC(=O)[C@@H]2C[C@@H](Oc3nc4cc(OC)ccc4nc3C(F)(F)F)CN2C(=O)[C@H]1NC(=O)OC(C)(C)C(F)(F)F [Compound 1038, 1,1,1-trifluoro-2-methylpropan-2-yl ((2R,6S,7R,9S,13aS,14aR,16aS,Z)-14a-(((1-(fluoromethyl)cyclopropyl)sulfonyl)carbamoyl)-2-((7-methoxy-3-(trifluoromethyl)quinoxalin-2-yl)oxy)-7-(methoxymethyl)-9-methyl-5,16-dioxo-1,2,3,5,6,7,8,9,10,11,13a,14,14a,15,16,16a-hexadecahydrocyclopropa[e]pyrrolo[1,2-a][1,4]diazacyclopentadecin-6-yl)carbamate]",35,35 to 620,14.7,5.01 to 35
"COC[C@@H]1C[C@H](C)CC/C=C\[C@@H]2C[C@@]2(C(=O)NS(=O)(=O)C2(C)CC2)NC(=O)[C@@H]2C[C@@H](Oc3nc4cc(OC)ccc4nc3C(F)(F)F)CN2C(=O)[C@H]1NC(=O)OC(C)(C)C [Compound 1028, tert-butyl ((2R,6S,7R,9R,13aS,14aR,16aS,Z)-2-((7-methoxy-3-(trifluoromethyl)quinoxalin-2-yl)oxy)-7-(methoxymethyl)-9-methyl-14a-(((1-methylcyclopropyl)sulfonyl)carbamoyl)-5,16-dioxo-1,2,3,5,6,7,8,9,10,11,13a,14,14a,15,16,16a-hexadecahydrocyclopropa[e]pyrrolo[1,2-a][1,4]diazacyclopentadecin-6-yl)carbamate]",–,0.51 to 1,–,0.1 to 0.5
"COC[C@@H]1C[C@@H](C)CC/C=C\[C@@H]2C[C@@]2(C(=O)NS(=O)(=O)C2CC2)NC(=O)[C@@H]2C[C@@H](Oc3nccc4cc(OC)ccc34)CN2C(=O)[C@H]1NC(=O)OC(C)(C)C [Compound 1008, tert-butyl ((2R,6S,7R,9S,13aS,14aR,16aS,Z)-14a-((cyclopropylsulfonyl)carbamoyl)-2-((6-methoxyisoquinolin-1-yl)oxy)-7-(methoxymethyl)-9-methyl-5,16-dioxo-1,2,3,5,6,7,8,9,10,11,13a,14,14a,15,16,16a-hexadecahydrocyclopropa[e]pyrrolo[1,2-a][1,4]diazacyclopentadecin-6-yl)carbamate]",–,1.01 to 5,–,1.01 to 5
"COC[C@@H]1C[C@@H](C)CC/C=C\[C@@H]2C[C@@]2(C(=O)NS(=O)(=O)C2CC2)NC(=O)[C@@H]2C[C@@H](Oc3ncc(OC)c4ccccc34)CN2C(=O)[C@H]1NC(=O)OC(C)(C)C(F)(F)F [Compound 1013, 1,1,1-trifluoro-2-methylpropan-2-yl ((2R,6S,7R,9S,13aS,14aR,16aS,Z)-14a-((cyclopropylsulfonyl)carbamoyl)-2-((4-methoxyisoquinolin-1-yl)oxy)-7-(methoxymethyl)-9-methyl-5,16-dioxo-1,2,3,5,6,7,8,9,10,11,13a,14,14a,15,16,16a-hexadecahydrocyclopropa[e]pyrrolo[1,2-a][1,4]diazacyclopentadecin-6-yl)carbamate]",–,1.01 to 5,–,1.01 to 5
"COC[C@@H]1C[C@@H](C)CC/C=C\[C@@H]2C[C@@]2(C(=O)NS(=O)(=O)C2(CF)CC2)NC(=O)[C@@H]2C[C@@H](Oc3nc4cc(OC)ccc4nc3C(C)C)CN2C(=O)[C@H]1NC(=O)OC(C)(C)C(F)(F)F [Compound 1040, 1,1,1-trifluoro-2-methylpropan-2-yl ((2R,6S,7R,9S,13aS,14aR,16aS,Z)-14a-(((1-(fluoromethyl)cyclopropyl)sulfonyl)carbamoyl)-2-((3-isopropyl-7-methoxyquinoxalin-2-yl)oxy)-7-(methoxymethyl)-9-methyl-5,16-dioxo-1,2,3,5,6,7,8,9,10,11,13a,14,14a,15,16,16a-hexadecahydrocyclopropa[e]pyrrolo[1,2-a][1,4]diazacyclopentadecin-6-yl)carbamate]",–,35 to 620,–,35 to 620
COC[C@@H]1C[C@H](C)CC/C=C\[C@@H]2C[C@@]2(C(=O)NS(=O)(=O)C2(CF)CC2)NC(=O)[C@@H]2C[C@@H](Oc3nc4cc(OC)ccc4nc3C(C)C)CN2C(=O)[C@H]1NC(=O)OC(C)(C)C(F)(F)F [Compound 1039],–,5.01 to 35,–,1.01 to 5
"COC[C@@H]1C[C@@H](C)CC/C=C\[C@@H]2C[C@@]2(C(=O)NS(=O)(=O)C2CC2)NC(=O)[C@@H]2C[C@@H](Oc3nccc4cc(OC)ccc34)CN2C(=O)[C@H]1NC(=O)OC(C)(C)C(F)(F)F [Compound 1018, 1,1,1-trifluoro-2-methylpropan-2-yl ((2R,6S,7R,9S,13aS,14aR,16aS,Z)-14a-((cyclopropylsulfonyl)carbamoyl)-2-((6-methoxyisoquinolin-1-yl)oxy)-7-(methoxymethyl)-9-methyl-5,16-dioxo-1,2,3,5,6,7,8,9,10,11,13a,14,14a,15,16,16a-hexadecahydrocyclopropa[e]pyrrolo[1,2-a][1,4]diazacyclopentadecin-6-yl)carbamate]",–,1.01 to 5,–,1.01 to 5
"COC[C@@H]1C[C@H](C)CC/C=C\[C@@H]2C[C@@]2(C(=O)NS(=O)(=O)C2(C)CC2)NC(=O)[C@@H]2C[C@@H](Oc3nccc4cc(OC)ccc34)CN2C(=O)[C@H]1NC(=O)OC(C)(C)C(F)(F)F [Compound 1014, 1,1,1-trifluoro-2-methylpropan-2-yl ((2R,6S,7R,9R,13aS,14aR,16aS,Z)-2-((6-methoxyisoquinolin-1-yl)oxy)-7-(methoxymethyl)-9-methyl-14a-(((1-methylcyclopropyl)sulfonyl)carbamoyl)-5,16-dioxo-1,2,3,5,6,7,8,9,10,11,13a,14,14a,15,16,16a-hexadecahydrocyclopropa[e]pyrrolo[1,2-a][1,4]diazacyclopentadecin-6-yl)carbamate]",–,1.01 to 5,–,0.51 to 1
"COC[C@@H]1C[C@@H](C)CC/C=C\[C@@H]2C[C@@]2(C(=O)NS(=O)(=O)C2(C)CC2)NC(=O)[C@@H]2C[C@@H](Oc3nccc4cc(OC)ccc34)CN2C(=O)[C@H]1NC(=O)OC(C)(C)C(F)(F)F [Compound 1015, 1,1,1-trifluoro-2-methylpropan-2-yl ((2R,6S,7R,9S,13aS,14aR,16aS,Z)-2-((6-methoxyisoquinolin-1-yl)oxy)-7-(methoxymethyl)-9-methyl-14a-(((1-methylcyclopropyl)sulfonyl)carbamoyl)-5,16-dioxo-1,2,3,5,6,7,8,9,10,11,13a,14,14a,15,16,16a-hexadecahydrocyclopropa[e]pyrrolo[1,2-a][1,4]diazacyclopentadecin-6-yl)carbamate]",–,1.01 to 5,–,1.01 to 5
"COC[C@@H]1C[C@@H](C)CC/C=C\[C@@H]2C[C@@]2(C(=O)NS(=O)(=O)C2CC2)NC(=O)[C@@H]2C[C@@H](Oc3ncc(OC)c4ccccc34)CN2C(=O)[C@H]1NC(=O)OC(C)(C)C [Compound 1004, tert-butyl ((2R,6S,7R,9S,13aS,14aR,16aS,Z)-14a-((cyclopropylsulfonyl)carbamoyl)-2-((4-methoxyisoquinolin-1-yl)oxy)-7-(methoxymethyl)-9-methyl-5,16-dioxo-1,2,3,5,6,7,8,9,10,11,13a,14,14a,15,16,16a-hexadecahydrocyclopropa[e]pyrrolo[1,2-a][1,4]diazacyclopentadecin-6-yl)carbamate]",–,1.01 to 5,–,1.01 to 5
"COC[C@@H]1C[C@H](C)CC/C=C\[C@@H]2C[C@@]2(C(=O)NS(=O)(=O)C2CC2)NC(=O)[C@@H]2C[C@@H](Oc3ncc(OC)c4ccccc34)CN2C(=O)[C@H]1NC(=O)OC(C)(C)C(F)(F)F [Compound 1012, 1,1,1-trifluoro-2-methylpropan-2-yl ((2R,6S,7R,9R,13aS,14aR,16aS,Z)-14a-((cyclopropylsulfonyl)carbamoyl)-2-((4-methoxyisoquinolin-1-yl)oxy)-7-(methoxymethyl)-9-methyl-5,16-dioxo-1,2,3,5,6,7,8,9,10,11,13a,14,14a,15,16,16a-hexadecahydrocyclopropa[e]pyrrolo[1,2-a][1,4]diazacyclopentadecin-6-yl)carbamate]",–,0.51 to 1,–,0.1 to 0.5
"COC[C@@H]1C[C@H](C)CC/C=C\[C@@H]2C[C@@]2(C(=O)NS(=O)(=O)C2(C)CC2)NC(=O)[C@@H]2C[C@@H](Oc3nccc4cc(OC)ccc34)CN2C(=O)[C@H]1NC(=O)OC(C)(C)C [Compound 1005, tert-butyl ((2R,6S,7R,9R,13aS,14aR,16aS,Z)-2-((6-methoxyisoquinolin-1-yl)oxy)-7-(methoxymethyl)-9-methyl-14a-(((1-methylcyclopropyl)sulfonyl)carbamoyl)-5,16-dioxo-1,2,3,5,6,7,8,9,10,11,13a,14,14a,15,16,16a-hexadecahydrocyclopropa[e]pyrrolo[1,2-a][1,4]diazacyclopentadecin-6-yl)carbamate]",–,1.01 to 5,–,0.1 to 0.5
COC[C@@H]1CCCC/C=C\[C@@H]2C[C@@]2(C(=O)NS(=O)(=O)C2CC2)NC(=O)[C@@H]2C[C@@H](Oc3nccc4cc(OC)c(F)cc34)CN2C(=O)[C@H]1NC(=O)OC(C)(C)C(F)(F)F [Compound 1023],–,1.01 to 5,–,0.1 to 0.5
"COC[C@@H]1C[C@@H](C)CC/C=C\[C@@H]2C[C@@]2(C(=O)NS(=O)(=O)C2(C)CC2)NC(=O)[C@@H]2C[C@@H](Oc3nc4cc(OC)ccc4nc3C(F)(F)F)CN2C(=O)[C@H]1NC(=O)OC(C)(C)C [Compound 1027, tert-butyl ((2R,6S,7R,9S,13aS,14aR,16aS,Z)-2-((7-methoxy-3-(trifluoromethyl)quinoxalin-2-yl)oxy)-7-(methoxymethyl)-9-methyl-14a-(((1-methylcyclopropyl)sulfonyl)carbamoyl)-5,16-dioxo-1,2,3,5,6,7,8,9,10,11,13a,14,14a,15,16,16a-hexadecahydrocyclopropa[e]pyrrolo[1,2-a][1,4]diazacyclopentadecin-6-yl)carbamate]",–,5.01 to 35,–,1.01 to 5

# Source: patent US9580463B2 (BRISTOL-MYERS SQUIBB COMPANY, priority 2013, dated 2017)
